# Data: patent US20260049084A1, “ENPP1 MODULATORS AND PRODUCTS AND USES THEREOF” (Gossamer Bio Services, Inc., priority 2022, published 2026)
# What was measured:
# [1] = target: Recombinant human ENPP3 protein (Homo sapiens (Human), UniProt O14638); test: ENPP3 cGAMP Biochemical Assay; settings: 70.5 nM ENPP3, 120 μM 2′3′-cGAMP substrate, TR-FRET
# Method: ENPP3 cGAMP Biochemical Assay
# Compounds were added to 384 well Proxiplate (PerkinElmer, Waltham MA) at 100 nl/well from DMSO stocks using Echo (Labcyte, San Jose CA). Recombinant human ENPP3 protein (Acro Biosystems, Newwark DE) was prepared in assay buffer (50 mM Tris pH7.5, 1 mM TCEP pH7.0, 2 mM MgCl2, 2 mM CaCl2), 2 mM ZnCl2 and 0.005% Tween20) and added at 2 μl/well. The plate was sealed, centrifuged at 1000 rpm for 1 minute and incubated at room temperature for 30 minutes before 2 μl substrate 2′3′-cGAMP (R&D Systems, Minneapolis MN) in assay buffer was added to each well to a final concentration of 70.5 nM ENPP3 and 120 μM 2′3′-cGAMP. The plate was sealed and centrifuged at 1000 rpm for 1 minute again. After incubation at 25° C. for 60 minutes, Terbium labelled AMP/GMP antibody and AMP/GMP HiLyte647 Tracer (BellBrook Labs, Fitchburg WI) in detection buffer (50 mM Tris pH7.5, 20 mM EDTA and 0.1% Prionex) were added to the reaction mixture to a final concentration of 475 nM and 3 nM respectively. The assay plate was incubated at room temperature for 120 minutes. TR-FRET signal was detected using Envision (PerkinElmer, Waltham MA).
# [2] = target: carbonic anhydrase II enzyme (Homo sapiens (Human), UniProt P00918); test: Carbonic Anhydrase 2 Enzymatic Assay; format: biochemical; settings: enzyme from human erythrocyte, 500 μM 4-nitrophenyl acetate, absorbance 400 nm; read-out: CA II IC50
# Method: Carbonic Anhydrase 2 Enzymatic Assay
# (§1) Test compound and/or vehicle was preincubated with carbonic anhydrase II enzyme (15 μg/ml) isolated from human erythrocyte in reaction buffer (50 mM MOPS solution pH 7.5) for 15 minutes at 25° C. The reaction was initiated by addition of 500 μM 4-nitrophenyl acetate and incubated for 30 minutes. The plate was read on a spectrophotometer (Absorbance: 400 nm)
# [3] = target: carbonic anhydrase I enzyme (Homo sapiens (Human), UniProt P00915); test: Carbonic Anhydrase 1 Enzymatic Assay; format: biochemical; settings: enzyme from human erythrocyte, 500 μM 4-nitrophenyl acetate, absorbance 400 nm; read-out: CA I IC50
# Sequence of carbonic anhydrase I enzyme (P00915 whole entry): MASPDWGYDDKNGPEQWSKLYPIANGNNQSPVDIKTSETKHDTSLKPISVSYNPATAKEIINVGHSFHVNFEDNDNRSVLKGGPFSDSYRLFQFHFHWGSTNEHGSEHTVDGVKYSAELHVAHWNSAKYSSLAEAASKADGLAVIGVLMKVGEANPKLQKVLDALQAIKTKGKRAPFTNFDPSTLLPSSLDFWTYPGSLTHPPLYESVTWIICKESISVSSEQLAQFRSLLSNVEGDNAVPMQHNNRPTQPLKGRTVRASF
# Method: Carbonic Anhydrase 1 Enzymatic Assay
# as §1, with “I” for “II”
# [4] = target: Recombinant human ENPP1 protein (Homo sapiens (Human), UniProt P22413); test: ENPP1 cGAMP Biochemical Assay; settings: 0.5 nM ENPP1, 1000 nM 2′3′-cGAMP substrate, TR-FRET
# Sequence of Recombinant human ENPP1 protein (P22413 whole entry): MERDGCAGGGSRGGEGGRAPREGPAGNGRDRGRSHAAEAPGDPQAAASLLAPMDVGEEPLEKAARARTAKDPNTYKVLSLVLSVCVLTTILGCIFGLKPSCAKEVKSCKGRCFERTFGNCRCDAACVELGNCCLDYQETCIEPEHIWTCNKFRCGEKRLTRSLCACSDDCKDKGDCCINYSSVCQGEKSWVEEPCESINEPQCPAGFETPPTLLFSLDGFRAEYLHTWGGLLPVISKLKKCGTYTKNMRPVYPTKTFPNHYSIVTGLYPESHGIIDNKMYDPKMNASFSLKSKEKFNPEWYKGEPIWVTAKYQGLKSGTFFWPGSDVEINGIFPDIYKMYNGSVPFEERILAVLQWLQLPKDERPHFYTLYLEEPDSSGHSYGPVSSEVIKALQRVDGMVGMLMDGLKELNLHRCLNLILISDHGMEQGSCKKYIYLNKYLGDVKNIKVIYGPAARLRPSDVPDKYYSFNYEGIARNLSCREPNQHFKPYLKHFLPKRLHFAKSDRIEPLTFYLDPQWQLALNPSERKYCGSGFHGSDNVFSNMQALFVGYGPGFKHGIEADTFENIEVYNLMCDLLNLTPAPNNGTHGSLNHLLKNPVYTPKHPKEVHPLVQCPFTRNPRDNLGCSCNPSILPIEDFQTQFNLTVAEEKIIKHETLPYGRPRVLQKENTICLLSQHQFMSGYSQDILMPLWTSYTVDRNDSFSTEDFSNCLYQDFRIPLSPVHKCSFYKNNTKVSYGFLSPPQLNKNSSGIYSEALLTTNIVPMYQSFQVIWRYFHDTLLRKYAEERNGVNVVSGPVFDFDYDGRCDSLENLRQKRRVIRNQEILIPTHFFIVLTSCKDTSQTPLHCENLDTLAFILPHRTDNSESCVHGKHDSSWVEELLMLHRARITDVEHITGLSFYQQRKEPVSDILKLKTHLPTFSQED
# Method: ENPP1 cGAMP Biochemical Assay
# Compounds were added to 384 well Proxiplate (PerkinElmer, Waltham MA) at 100 nl/well from DMSO stocks using Echo (Labcyte, San Jose CA). Recombinant human ENPP1 protein (R&D Systems, Minneapolis MN) was prepared in assay buffer (50 mM Tris pH7.5, 1 mM TCEP pH7.0, 2 mM MgCl2 and 0.005% Tween20) and added at 10 μl/well. The plate was sealed, centrifuged at 1000 rpm for 1 minute and incubated at room temperature for 30 minutes before 5 μl substrate 2′3′-cGAMP (R&D Systems, Minneapolis MN) in assay buffer was added to each well to a final concentration of 0.5 nM ENPP1 and 1000 nM 2′3′-cGAMP. The plate was sealed and centrifuged at 1000 rpm for 1 minute again. After incubation at 25° C. for 60 minutes, Terbium labelled AMP/GMP antibody and AMP/GMP HiLyte647 Tracer (BellBrook Labs, Fitchburg WI) in detection buffer (50 mM Tris pH7.5, 20 mM EDTA and 0.1% Prionex) were added to the reaction mixture to a final concentration of 2 nM (5 μl/well). The assay plate was incubated at room temperature for 120 minutes. TR-FRET signal was detected using Envision (PerkinElmer, Waltham MA).
# Sequence of Recombinant human ENPP3 protein (O14638 whole entry): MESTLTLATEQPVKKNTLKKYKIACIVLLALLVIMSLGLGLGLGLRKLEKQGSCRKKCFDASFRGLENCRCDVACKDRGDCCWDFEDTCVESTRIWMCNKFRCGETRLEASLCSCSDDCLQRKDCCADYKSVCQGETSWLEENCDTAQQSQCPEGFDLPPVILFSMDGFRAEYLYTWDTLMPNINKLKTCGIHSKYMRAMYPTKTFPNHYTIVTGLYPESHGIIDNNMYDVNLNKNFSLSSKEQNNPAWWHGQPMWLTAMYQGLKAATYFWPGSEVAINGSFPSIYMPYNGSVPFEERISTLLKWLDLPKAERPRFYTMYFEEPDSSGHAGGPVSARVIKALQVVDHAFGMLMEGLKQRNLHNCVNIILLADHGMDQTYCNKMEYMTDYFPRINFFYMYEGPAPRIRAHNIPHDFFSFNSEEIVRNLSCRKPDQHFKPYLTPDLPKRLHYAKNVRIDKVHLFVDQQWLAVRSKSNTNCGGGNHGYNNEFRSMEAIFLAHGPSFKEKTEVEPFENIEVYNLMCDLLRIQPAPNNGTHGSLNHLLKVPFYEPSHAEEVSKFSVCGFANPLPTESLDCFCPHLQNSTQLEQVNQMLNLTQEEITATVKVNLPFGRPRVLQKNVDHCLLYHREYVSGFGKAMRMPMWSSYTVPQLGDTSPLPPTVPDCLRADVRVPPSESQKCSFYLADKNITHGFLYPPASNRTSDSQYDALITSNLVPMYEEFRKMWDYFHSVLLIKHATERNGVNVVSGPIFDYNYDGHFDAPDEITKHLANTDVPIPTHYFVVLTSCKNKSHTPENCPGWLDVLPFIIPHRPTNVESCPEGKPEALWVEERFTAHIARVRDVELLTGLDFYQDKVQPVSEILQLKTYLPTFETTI
Structure (SMILES),IC50 [1] [nM],IC50 [2] [nM],IC50 [3] [nM],IC50 [4] [nM]
"CCn1ncc2c(NCC3CCN(S(=N)(N)=O)CC3)ccnc21 (stereo not shown) [Compound 1A, 4-(((1-ethyl-1H-pyrazolo[3,4-b]pyridin-4-yl)amino)methyl)piperidine-1-sulfonimidamide]",100 to 1000,≥ 1000,100 to 1000,10 to 100
"N=S(N)(=O)c1ccc(CNc2ccnc3[nH]nc(-c4ccccc4)c23)cc1 (stereo not shown) [Compound 1B, 4-(((3-phenyl-1H-pyrazolo[3,4-b]pyridin-4-yl)amino)methyl)benzenesulfonimidamide]",10 to 100,100 to 1000,100 to 1000,10 to 100
"CCn1ncc2c(NCc3ccc(S(=N)(N)=O)cc3)ccnc21 (stereo not shown) [Compound 2A, 4-(((1-ethyl-1H-pyrazolo[3,4-b]pyridin-4-yl)amino)methyl)benzene sulfonimidamide]",≥ 1000,≥ 1000,100 to 1000,10 to 100
"CCn1nc(Br)c2c(NCc3ccc(S(=N)(N)=O)cc3)ccnc21 (stereo not shown) [Compound 2B, 4-(((3-bromo-1-ethyl-1H-pyrazolo[3,4-b]pyridin-4-yl)amino)methyl)benzenesulfonimidamide]",100 to 1000,≥ 1000,10 to 100,10 to 100
"CCn1ncc2c(NCc3ccc(S(N)(=O)=NC)cc3)ccnc21 (stereo not shown) [Compound 3A, 4-(((1-ethyl-1H-pyrazolo[3,4-b]pyridin-4-yl)amino)methyl)-N′-methylbenzenesulfonimidamide]",≥ 1000,≥ 1000,≥ 1000,100 to 1000
"CCn1ncc2c(NCC3CCN(S(C)(=N)=O)CC3)ccnc21 (stereo not shown) [Compound 4A, 1-ethyl-N-((1-(S-methylsulfonimidoyl)piperidin-4-yl)methyl)-1H-pyrazolo[3,4-b]pyridin-4-amine]",≥ 1000,≥ 1000,≥ 1000,
"CCn1ncc2c(NCc3ccc(S(N)(=O)=NC#N)cc3)ccnc21 (stereo not shown) [Compound 12G, N′-cyano-4-(((1-ethyl-1H-pyrazolo[3,4-b]pyridin-4-yl)amino)methyl)benzenesulfonimidamide]",100 to 1000,≥ 1000,≥ 1000,
"C#CCn1nc(Cl)c2c(NCC3CCN([S@@](C)(=N)=O)CC3)ccnc21 [Compound 13C, (R)-3-chloro-N-((1-(S-methylsulfonimidoyl)piperidin-4-yl)methyl)-1-(prop-2-yn-1-yl)-1H-pyrazolo[3,4-b]pyridin-4-amine]",≥ 1000,,,< 10
"CS(=N)(=O)N1CCC(CNc2ccnc3c2c(Cl)nn3CC#N)CC1 (stereo not shown) [Compound 13D, 2-(3-chloro-4-(((1-(S-methylsulfonimidoyl)piperidin-4-yl)methyl)amino)-1H-pyrazolo[3,4-b]pyridin-1-yl)acetonitrile]",10 to 100,,,< 10
"C[S@@](=N)(=O)N1CCC(CNc2ccnc3c2c(Cl)nn3CC#N)CC1 [Compound 13E, (S)-2-(3-chloro-4-(((1-(S-methylsulfonimidoyl)piperidin-4-yl)methyl)amino)-1H-pyrazolo[3,4-b]pyridin-1-yl)acetonitrile]",10 to 100,,,< 10
"C[S@](=N)(=O)N1CCC(CNc2ccnc3c2c(Cl)nn3CC#N)CC1 [Compound 13F, (R)-2-(3-chloro-4-(((1-(S-methylsulfonimidoyl)piperidin-4-yl)methyl)amino)-1H-pyrazolo[3,4-b]pyridin-1-yl)acetonitrile]",≥ 1000,,,100 to 1000
"CCn1nc(Cl)c2c(NCC3CCN([S@@](C)(=N)=O)CC3)ccnc21 [Compound 13G, (R)-3-chloro-1-ethyl-N-((1-(S-methylsulfonimidoyl)piperidin-4-yl)methyl)-1H-pyrazolo[3,4-b]pyridin-4-amine]",≥ 1000,,,10 to 100
"CCn1nc(Cl)c2c(NCC3CCN([S@](C)(=N)=O)CC3)ccnc21 [Compound 13H, (S)-3-chloro-1-ethyl-N-((1-(S-methylsulfonimidoyl)piperidin-4-yl)methyl)-1H-pyrazolo[3,4-b]pyridin-4-amine]",≥ 1000,,,10 to 100
"CCn1nc(Cl)c2c(NCC3CCN(S(=N)(=O)CCOC)CC3)ccnc21 (stereo not shown) [Compound 14B, 3-chloro-1-ethyl-N-((1-(2-methoxyethylsulfonimidoyl)piperidin-4-yl)methyl)-1H-pyrazolo[3,4-b]pyridin-4-amine]",≥ 1000,,,10 to 100
"CCn1nc(Cl)c2c(NCC3CCN([S@@](=N)(=O)CCOC)CC3)ccnc21 [Compound 14C, (R)-3-chloro-1-ethyl-N-((1-(2-methoxyethylsulfonimidoyl)piperidin-4-yl)methyl)-1H-pyrazolo[3,4-b]pyridin-4-amine]",≥ 1000,,,10 to 100
"CCn1nc(Cl)c2c(NCC3CCN([S@](=N)(=O)CCOC)CC3)ccnc21 [Compound 14D, (S)-3-chloro-1-ethyl-N-((1-(2-methoxyethylsulfonimidoyl)piperidin-4-yl)methyl)-1H-pyrazolo[3,4-b]pyridin-4-amine]",≥ 1000,,,10 to 100
"CCn1nc(Cl)c2c(NCC3CCN(S(=N)(=O)CCC(=O)O)CC3)ccnc21 (stereo not shown) [Compound 14F, 3-(4-(((3-chloro-1-ethyl-1H-pyrazolo[3,4-b]pyridin-4-yl)amino)methyl)piperidine-1-sulfonimidoyl)propanoic acid]",100 to 1000,,,< 10
"C#CCn1nc(Cl)c2c(NCC3CCN([S@@](C)(=O)=NC#N)CC3)ccnc21 [Compound 14I, (S)-N-((4-(((3-chloro-1-(prop-2-yn-1-yl)-1H-pyrazolo[3,4-b]pyridin-4-yl)amino)methyl)piperidin-1-yl)(methyl)(oxo)-λ6-sulfaneylidene)cyanamide]",≥ 1000,,,< 10
"C#CCn1nc(Cl)c2c(NCC3CCN([S@](C)(=O)=NC#N)CC3)ccnc21 [Compound 14J, (R)-N-((4-(((3-chloro-1-(prop-2-yn-1-yl)-1H-pyrazolo[3,4-b]pyridin-4-yl)amino)methyl)piperidin-1-yl)(methyl)(oxo)-λ6-sulfaneylidene)cyanamide]",≥ 1000,,,100 to 1000
"CN=S(N)(=O)N1CCC(CNc2ccnc3c2c(Cl)nn3CC#N)CC1 (stereo not shown) [Compound 15A, 4-(((3-chloro-1-(cyanomethyl)-1H-pyrazolo[3,4-b]pyridin-4-yl)amino)methyl)-N′-methylpiperidine-1-sulfonimidamide]",10 to 100,,,< 10
"N#CCn1nc(Cl)c2c(NCC3CCN(S(N)(=O)=NC#N)CC3)ccnc21 (stereo not shown) [Compound 15B, 4-(((3-chloro-1-(cyanomethyl)-1H-pyrazolo[3,4-b]pyridin-4-yl)amino)methyl)-N′-cyanopiperidine-1-sulfonimidamide]",< 10,,,< 10
"C#CCn1nc(Cl)c2c(NCC3CCN(S(=N)(N)=O)CC3)ccnc21 (stereo not shown) [Compound 15I, 4-(((3-chloro-1-(prop-2-yn-1-yl)-1H-pyrazolo[3,4-b]pyridin-4-yl)amino)methyl)piperidine-1-sulfonimidamide]",100 to 1000,,,< 10
"CCn1ncc2c(Oc3ccc(S(N)(=O)=NCC4CC4)cc3)ccnc21 (stereo not shown) [Compound 16A, N′-(cyclopropylmethyl)-4-((1-ethyl-1H-pyrazolo [3,4-b]pyridin-4-yl)oxy)benzenesulfonimidamide]",≥ 1000,,,≥ 1000
